Source: patent US20120202756A1, “USE OF PRODRUGS TO AVOID GI MEDIATED ADVERSE EVENTS” (priority 2009, published 2012)
Where a name gives a salt, the structure may show the parent alone. Read-outs that look alike come from different tables or passages of the source.

Key:
Helicobacter pylori = assay: MIC, clindamycin prodrugs; assay type: cell-based
Prevotella bivia = details: ATCC 29303
Clostridium perfringens = assay: microbe, parasite or virus in culture; assay type: cell-based
Clostridium sporogenes = assay: MIC, clindamycin prodrugs; assay type: cell-based; details: ATCC 3584
[1] = system: Fusobacterium necrophorum; details: clinical isolate
[2] = system: Peptostreptococcus anaerobius; assay: MIC, clindamycin prodrugs; assay type: cell-based; details: NCTC 11460
Prevotella oralis = details: clinical isolate
[3] = system: Staphylococcus haemolyticus; assay: MIC, clindamycin prodrugs; assay type: cell-based; details: antibiotic susceptible clinical isolate
Clostridium sordellii = details: NCTC 13356
[4] = system: Bacteroides thetaiotamicron; assay: MIC, clindamycin prodrugs; assay type: cell-based
Enterococcus faecalis = details: ATCC 29212 antibiotic-susceptible type strain
[5] = Stability in simulated intestinal juice (FeSSIF); assay type: in vitro ADME; details: FeSSIF pH 5.0, pancreatin 1%
[6] = system: Prevotella melaninogenicus; assay: MIC, clindamycin prodrugs; assay type: cell-based
Group C Streptococcus = assay: MIC, clindamycin prodrugs; assay type: cell-based; details: antibiotic-susceptible clinical isolate
Eggerthella lenta = assay: MIC, clindamycin prodrugs; assay type: cell-based
Corynebacterium jeikeium = details: antibiotic-susceptible clinical isolate
Bifidobacterium longum = assay: MIC, clindamycin prodrugs; assay type: cell-based; details: NCTC 11818
Bacteroides fragilis = assay: MIC, clindamycin prodrugs; assay type: cell-based
[7] = system: Porphyromonas endodontalis; details: clinical isolate
Veillonella atypical = assay: MIC, clindamycin prodrugs; assay type: cell-based; details: NCTC 11830
Veillonella parvula = assay: MIC, clindamycin prodrugs; assay type: cell-based; details: NCTC 11810
Streptococcus pyogenes = assay: MIC, clindamycin prodrugs; assay type: cell-based
[8] = system: Bifidobacterium adolescentis; assay: MIC, clindamycin prodrugs; assay type: cell-based; details: NCTC 11814
Clostridium novyi = details: ATCC 19402
Campylobacter jejuni = assay: MIC, clindamycin prodrugs; assay type: cell-based
Listeria monocytogenes = details: antibiotic-susceptible clinical isolate
Propionibacterium acnes = assay: MIC, clindamycin prodrugs; assay type: cell-based
[9] = system: Staphylococcus saprophyticus; details: antibiotic susceptible clinical isolate
Group G Streptococcus = details: antibiotic-susceptible clinical isolate
Staphylococcusaureus = assay: MIC, clindamycin prodrugs; assay type: cell-based
[10] = system: Peptostreptococcus micros; details: clinical isolate
[11] = system: Staphylococcus epidermidis; assay: MIC, clindamycin prodrugs; assay type: cell-based
Campylobacter coli = assay: MIC, clindamycin prodrugs; assay type: cell-based
Streptococcus pneumoniae = assay: MIC, clindamycin prodrugs; assay type: cell-based
Bifidobacterium dentium = assay: MIC, clindamycin prodrugs; assay type: cell-based; details: NCTC 11816
Enterococcus faecium = details: vancomycin-susceptible clinical isolate
[12] = antibiotic-susceptible clinical isolate

In the case of `CCCC1CC(C(=O)NC(C(C)Cl)C2OC(SC)C(OC(=O)CCC(=O)N[C@H](C(=O)O)C(C)C)C(O)C2O)N(C)C1` (stereo partly drawn) [Clindamycin succinyl valine ester, Clindamycin-2-[succinyl-(S)-valine]ester trifluoroacetate], the Minimum inhibitory concentration (Helicobacter pylori; ATCC 43504) is reported as “≦0.03 ug/mL”, the Minimum inhibitory concentration (Helicobacter pylori; clinical isolate (r56)) is reported as “≦0.03 ug/mL” and the Minimum inhibitory concentration (Helicobacter pylori; clinical isolate (r57)) is reported as “≦0.03 ug/mL”. The Minimum inhibitory concentration (Helicobacter pylori; clinical isolate (r100)) was “≦0.03 ug/mL”, the Minimum inhibitory concentration (Helicobacter pylori; clinical isolate (r101)) was “≦0.03 ug/mL” and the Minimum inhibitory concentration (Prevotella bivia) was 0.5 mg/L. It also gave a Minimum inhibitory concentration (Clostridium perfringens; ATCC 13124) of 1 mg/L, a Minimum inhibitory concentration (Clostridium perfringens; [12]) of 1 mg/L and a Minimum inhibitory concentration (Clostridium sporogenes) greater than 64 mg/L. The Minimum inhibitory concentration [1] was 0.12 mg/L, the Minimum inhibitory concentration [2] was 8 mg/L and the Minimum inhibitory concentration (Prevotella oralis) was “≦0.03 ug/mL”. The Minimum inhibitory concentration [3] was 2 mg/L, the Minimum inhibitory concentration (Clostridium sordellii) was 16 mg/L and the Minimum inhibitory concentration ([4]; ATCC 29741) was 16 mg/L. The Minimum inhibitory concentration ([4]; NCTC 10582) was 32 mg/L, the Minimum inhibitory concentration (Enterococcus faecalis) was greater than 64 mg/L and the “Simulated intestinal juice (2 h, 37° C.) (FeSSIF) % active drug generated” value [5] was less than 1%. For the same molecule, the Minimum inhibitory concentration ([6]; clinical isolate (first listed, r37)) was 0.25 mg/L, the Minimum inhibitory concentration ([6]; clinical isolate (second listed, r38)) was 0.25 mg/L and the Minimum inhibitory concentration (Group C Streptococcus) was 1 mg/L. It also gave a Minimum inhibitory concentration (Eggerthella lenta; ATCC 43055) of 8 mg/L, a Minimum inhibitory concentration (Eggerthella lenta; clinical isolate) of 8 mg/L and a Minimum inhibitory concentration (Corynebacterium jeikeium) greater than 64 mg/L. For the same molecule, the Minimum inhibitory concentration (Bifidobacterium longum) was 0.5 mg/L, the Minimum inhibitory concentration (Bacteroides fragilis; ATCC 25285) was 8 mg/L and the Minimum inhibitory concentration (Bacteroides fragilis; clinical isolate) was 8 mg/L. For the same molecule, the Minimum inhibitory concentration [7] was 0.12 mg/L, the Minimum inhibitory concentration (Veillonella atypical) was 2 mg/L and the Minimum inhibitory concentration (Veillonella parvula) was 1 mg/L. It also gave a Minimum inhibitory concentration (Streptococcus pyogenes; Macrolide (MLS) resistant clinical isolate) of 2 mg/L, a Minimum inhibitory concentration (Streptococcus pyogenes; [12]) of 1 mg/L and a Minimum inhibitory concentration [8] of 0.5 mg/L. The Minimum inhibitory concentration (Clostridium novyi) was 0.5 mg/L, the Minimum inhibitory concentration (Campylobacter jejuni; ATCC 33560) was “≦0.03 ug/mL” and the Minimum inhibitory concentration (Campylobacter jejuni; clinical isolate) was “≦0.03 ug/mL”. The Minimum inhibitory concentration (Listeria monocytogenes) was 16 mg/L, the Minimum inhibitory concentration (Propionibacterium acnes) was 2 mg/L and the Minimum inhibitory concentration (Propionibacterium acnes; clinical isolate MIC clindamycin 0.5 mg/L) was 2 mg/L. It also gave a Minimum inhibitory concentration [9] of 1 mg/L, a Minimum inhibitory concentration (Group G Streptococcus) of 1 mg/L and a Minimum inhibitory concentration (Staphylococcusaureus; ATCC 25923 - antibiotic-susceptible type strain) of 1 mg/L. The Minimum inhibitory concentration (Staphylococcusaureus; ATCC 29213 - antibiotic-susceptible type strain) was 2 mg/L, the Minimum inhibitory concentration (Staphylococcusaureus; ATCC 43300 - methicillin-resistant type strain) was greater than 64 mg/L and the Minimum inhibitory concentration [10] was 2 mg/L. The Minimum inhibitory concentration ([11]; antibiotic susceptible clinical isolate) was 2 mg/L, the Minimum inhibitory concentration ([11]; methicillin-resistant clinical isolate) was 4 mg/L and the Minimum inhibitory concentration (Campylobacter coli; ATCC 33559) was “≦0.03 ug/mL”. The Minimum inhibitory concentration (Campylobacter coli; clinical isolate) was “≦0.03 ug/mL”, the Minimum inhibitory concentration (Streptococcus pneumoniae; ATCC 49619 antibiotic-susceptible type strain) was 0.5 mg/L and the Minimum inhibitory concentration (Streptococcus pneumoniae; penicillin-susceptible clinical isolate) was 0.5 mg/L. The Minimum inhibitory concentration (Bifidobacterium dentium) was 0.5 mg/L and the Minimum inhibitory concentration (Enterococcus faecium) was greater than 64 mg/L.
